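Where inhibition never reached the appropriate level, the endpoint shown equals the highest concentration tested. Otherwise, values were interpolated linearly from a five-concentration, 48-hour dose response in 96-well plates. GI50: concentration for 50% inhibition of growth.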 Calls of active or inactive are those of the source. No stated cut-off is given here; in the data, active = GI50 up to about 1.1 µM and inactive = higher.
Key:
Assay in all cases: NCI tumour cell line growth inhibition, 48 h
TK-10 = system: TK-10
MDA-N = system: MDA-N
OVCAR-5 = system: OVCAR-5
SK-MEL-5 = system: SK-MEL-5
OVCAR-3 = system: OVCAR-3
SF-539 = system: SF-539
IGROV-1 = system: IGROV-1
UO-31 = system: UO-31
SF-268 = system: SF-268
SNB-75 = system: SNB-75
UACC-62 = system: UACC-62
T47D = system: T47D
NCI-H460 = system: NCI-H460
SW-620 = system: SW-620
HOP-92 = system: HOP-92
NCI-H226 = system: NCI-H226
A498 = system: A498
NCI-H522 = system: NCI-H522
CCRF-CEM = system: CCRF-CEM
SF-295 = system: SF-295
MDA-MB-435 = system: MDA-MB-435
SNB-19 = system: SNB-19
M14 = system: M14
SK-MEL-2 = system: SK-MEL-2
HCT-15 = system: HCT-15
SK-MEL-28 = system: SK-MEL-28
DU-145 = system: DU-145
EKVX = system: EKVX
PC-3 = system: PC-3
MCF7 = system: MCF7
CAKI-1 = system: CAKI-1
SR = system: SR
BT-549 = system: BT-549
ACHN = system: ACHN
OVCAR-8 = system: OVCAR-8
Malme-3M = system: Malme-3M
MDA-MB-231 = system: MDA-MB-231
U-251 = system: U-251
SN12C = system: SN12C
HL-60 = system: HL-60
OVCAR-4 = system: OVCAR-4
A549 = system: A549
RPMI-8226 = system: RPMI-8226
COLO 205 = system: COLO 205
SK-OV-3 = system: SK-OV-3
HT-29 = system: HT-29
UACC-257 = system: UACC-257
NCI/ADR-RES = system: NCI/ADR-RES
KM12 = system: KM12
LOX IMVI = system: LOX IMVI
HOP-62 = system: HOP-62
NCI-H23 = system: NCI-H23
786-0 = system: 786-0
MOLT-4 = system: MOLT-4
RXF 393 = system: RXF 393
HCT-116 = system: HCT-116
Hs-578T = system: Hs-578T
HCC 2998 = system: HCC 2998
K562 = system: K562

SMILES: c1c[nH]c(CN2CCN(Cc3ncc[nH]3)CC2)n1
- GI50 (TK-10): > 100 µM (inactive)
- GI50 (MDA-N): > 100 µM (inactive)
- GI50 (OVCAR-5): > 100 µM (inactive)
- GI50 (SK-MEL-5): > 100 µM (inactive)
- GI50 (OVCAR-3): > 100 µM (inactive)
- GI50 (SF-539): > 100 µM (inactive)
- GI50 (IGROV-1): > 100 µM (inactive)
- GI50 (UO-31): > 100 µM (inactive)
- GI50 (SF-268): > 100 µM (inactive)
- GI50 (SNB-75): > 100 µM (inactive)
- GI50 (UACC-62): > 100 µM (inactive)
- GI50 (T47D): > 100 µM (inactive)
- GI50 (NCI-H460): > 100 µM (inactive)
- GI50 (SW-620): > 100 µM (inactive)
- GI50 (HOP-92): > 100 µM (inactive)
- GI50 (NCI-H226): > 100 µM (inactive)
- GI50 (A498): > 100 µM (inactive)
- GI50 (NCI-H522): > 100 µM (inactive)
- GI50 (CCRF-CEM): > 100 µM (inactive)
- GI50 (SF-295): > 100 µM (inactive)
- GI50 (MDA-MB-435): > 100 µM (inactive)
- GI50 (SNB-19): > 100 µM (inactive)
- GI50 (M14): > 100 µM (inactive)
- GI50 (SK-MEL-2): > 100 µM (inactive)
- GI50 (HCT-15): > 100 µM
- GI50 (SK-MEL-28): > 100 µM (inactive)
- GI50 (DU-145): > 100 µM (inactive)
- GI50 (EKVX): 52.2 µM (inactive)
- GI50 (PC-3): > 100 µM (inactive)
- GI50 (MCF7): > 100 µM (inactive)
- GI50 (CAKI-1): > 100 µM (inactive)
- GI50 (SR): > 100 µM (inactive)
- GI50 (BT-549): > 100 µM (inactive)
- GI50 (ACHN): > 100 µM (inactive)
- GI50 (OVCAR-8): > 100 µM (inactive)
- GI50 (Malme-3M): > 100 µM (inactive)
- GI50 (MDA-MB-231): > 100 µM (inactive)
- GI50 (U-251): > 100 µM (inactive)
- GI50 (SN12C): > 100 µM (inactive)
- GI50 (HL-60): > 100 µM (inactive)
- GI50 (OVCAR-4): > 100 µM (inactive)
- GI50 (A549): > 100 µM (inactive)
- GI50 (RPMI-8226): > 100 µM (inactive)
- GI50 (COLO 205): > 100 µM (inactive)
- GI50 (SK-OV-3): > 100 µM (inactive)
- GI50 (HT-29): > 100 µM (inactive)
- GI50 (UACC-257): > 100 µM (inactive)
- GI50 (NCI/ADR-RES): > 100 µM (inactive)
- GI50 (KM12): > 100 µM (inactive)
- GI50 (LOX IMVI): > 100 µM (inactive)
- GI50 (HOP-62): > 100 µM (inactive)
- GI50 (NCI-H23): > 100 µM (inactive)
- GI50 (786-0): > 100 µM (inactive)
- GI50 (MOLT-4): > 100 µM (inactive)
- GI50 (RXF 393): > 100 µM (inactive)
- GI50 (HCT-116): > 100 µM (inactive)
- GI50 (Hs-578T): > 100 µM (inactive)

SMILES: O=CC1OC(=O)c2cc(O)c(O)c(O)c2-c2c(cc(O)c(O)c2O)C(=O)OC1C1OC(=O)c2cc(O)c(O)c(O)c2-c2c(O)c(O)c3oc(=O)c4c(c(O)c(O)c5oc(=O)c2c3c54)-c2c(cc(O)c(O)c2O)C(=O)OCC1O (centres undefined)
- GI50 (MDA-N): 20.4 µM (inactive)
- GI50 (OVCAR-5): 29.6 µM (inactive)
- GI50 (SK-MEL-5): 18.2 µM (inactive)
- GI50 (OVCAR-3): 39.7 µM (inactive)
- GI50 (IGROV-1): 39.4 µM (inactive)
- GI50 (UO-31): 23.4 µM (inactive)
- GI50 (HCC 2998): 33.4 µM (inactive)
- GI50 (SF-268): 56.9 µM (inactive)
- GI50 (SNB-75): 13.9 µM (inactive)
- GI50 (UACC-62): 29.4 µM (inactive)
- GI50 (T47D): 43.1 µM (inactive)
- GI50 (NCI-H460): 20.7 µM (inactive)
- GI50 (SW-620): 19.3 µM (inactive)
- GI50 (HOP-92): 16.6 µM (inactive)
- GI50 (NCI-H226): 32.4 µM (inactive)
- GI50 (A498): 5.94 µM (inactive)
- GI50 (NCI-H522): 18.2 µM (inactive)
- GI50 (CCRF-CEM): 24.3 µM (inactive)
- GI50 (SF-295): 18.7 µM (inactive)
- GI50 (MDA-MB-435): 22.3 µM (inactive)
- GI50 (SNB-19): 72.3 µM (inactive)
- GI50 (M14): 24.5 µM (inactive)
- GI50 (SK-MEL-2): > 100 µM (inactive)
- GI50 (HCT-15): 15.7 µM
- GI50 (SK-MEL-28): > 100 µM (inactive)
- GI50 (DU-145): 50.6 µM (inactive)
- GI50 (EKVX): 16.9 µM (inactive)
- GI50 (PC-3): 38.2 µM (inactive)
- GI50 (MCF7): 19.6 µM (inactive)
- GI50 (CAKI-1): 12.1 µM (inactive)
- GI50 (SR): 39.7 µM (inactive)
- GI50 (BT-549): > 100 µM (inactive)
- GI50 (ACHN): 35.2 µM (inactive)
- GI50 (OVCAR-8): 19.3 µM (inactive)
- GI50 (Malme-3M): 94.4 µM (inactive)
- GI50 (MDA-MB-231): 13.9 µM (inactive)
- GI50 (U-251): 17.9 µM (inactive)
- GI50 (SN12C): 16.6 µM (inactive)
- GI50 (HL-60): 20.9 µM (inactive)
- GI50 (OVCAR-4): 14.2 µM (inactive)
- GI50 (A549): 24.9 µM (inactive)
- GI50 (RPMI-8226): 57.8 µM (inactive)
- GI50 (COLO 205): 26 µM (inactive)
- GI50 (SK-OV-3): 50.6 µM (inactive)
- GI50 (HT-29): 13.4 µM (inactive)
- GI50 (UACC-257): 46.2 µM (inactive)
- GI50 (NCI/ADR-RES): 36.8 µM (inactive)
- GI50 (KM12): 20.3 µM (inactive)
- GI50 (LOX IMVI): 11.2 µM (inactive)
- GI50 (HOP-62): 44.3 µM (inactive)
- GI50 (NCI-H23): 30.8 µM (inactive)
- GI50 (786-0): 18.7 µM (inactive)
- GI50 (MOLT-4): 26.1 µM (inactive)
- GI50 (RXF 393): 57 µM (inactive)
- GI50 (HCT-116): 16.9 µM (inactive)
- GI50 (Hs-578T): 44.7 µM (inactive)
- GI50 (K562): 26.7 µM (inactive)

From ChEMBL document CHEMBL1201862, “PubChem BioAssay data set” (2004)
